Target: T1, caspase 3 (Homo sapiens, UniProt P42574)
T1 construct: His tag (C); made in house; host or cells: E. coli
T1 sequence (P42574 29-175 limits assumed): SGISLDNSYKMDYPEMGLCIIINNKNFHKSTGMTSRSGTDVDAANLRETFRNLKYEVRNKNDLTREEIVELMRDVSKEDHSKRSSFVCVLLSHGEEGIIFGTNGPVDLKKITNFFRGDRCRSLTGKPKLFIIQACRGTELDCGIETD
T1 sequence (P42574 176-277 limits assumed): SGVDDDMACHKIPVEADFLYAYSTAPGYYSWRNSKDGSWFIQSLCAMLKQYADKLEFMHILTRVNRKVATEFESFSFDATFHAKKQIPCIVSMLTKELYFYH
Test: Determination of probe IC50: caspase inhibition assay, cleavage of fluorogenic substrate Ac-DEVD-AFC
Assay type: biochemical
Details: substrate Ac-DEVD-AFC 25 μM; caspase added last; cleavage monitored 90 minutes, ex 400 nm / em 505 nm
Description: This standard pharmacological test procedure to assess the inhibition of recombinant caspase 3 activity of selected compounds was adapted from Thornbery, N., J. Biol. Chem. 1997 272(29) 17907-17911 and Stennicke, H. R. et al., J. Biol. Chem. 1997 272(41) 25719-25723. The procedure used and results obtained are briefly described below.
Caspase 3 was assayed at 23° C. (room temp) in 96-well plates using the internally quenched tetrapeptide substrate N-acetyl-aspartyl-glutamyl-valyl-aspartate-7-amino-4-trifluoromethyl coumarin (Ac-DEVD-AFC purchased from Biomol). The assays are conducted at pH 7.2 in a buffered system containing 20 mM PIPES, 100 mM NaCl, 1 mM EDTA, 0.1% CHAPS, 10% sucrose and 5 mM L-cysteine. The final concentration of the substrate is 25 μM. Enzymic cleavage between the aspartate and the AFC fluorophore liberates 7-amino-4-trifluoromethyl coumarin which is detected using an excitation wavelength of 400 nm and an emission wavelength of 505 nm in a SpectraMax GeminiXS plate reader operated at room temperature. A steady state rate of substrate cleavage is obtained for analysis. […]
The substrate Ac-DEVD-AFC (25 μM) was added to varying inhibitor (probe) concentrations ranging from 20 μM to 2 nM. […] The cleavage of the substrate by the enzyme (caspase) was monitored continuously for 90 minutes by exciting the substrate at 400 nm and monitoring the fluorescence at emission at 505 nm. […]

IC50 [µM]	Structure (SMILES)
0.01	CN1C(=O)C(=O)c2cc(S(=O)(=O)N3CCC[C@H]3CNC(=O)c3ccc(-c4c5ccc(=O)cc-5oc5cc(O)ccc45)c(C(=O)O)c3)ccc21 [Example 1, 2-(6-Hydroxy-3-oxo-3H-xanthen-9-yl)-5-{[({(2S)-1-[(1-methyl-2,3-dioxo-2,3-dihydro-1H-indol-5-yl)sulfonyl]pyrrolidin-2-yl}methyl)amino]carbonyl}benzoic acid]
0.015	CN1C(=O)C(=O)c2cc(S(=O)(=O)N3CCC[C@H]3CNC(=O)CCCCCNC(=O)c3ccc(-c4c5ccc(=O)cc-5oc5cc(O)ccc45)c(C(=O)O)c3)ccc21 [Example 2, 2-(6-Hydroxy-3-oxo-3H-xanthen-9-yl)-5-[({6-[({(2S)-1-[(1-methyl-2,3-dioxo-2,3-dihydro-1H-indol-5-yl)sulfonyl]pyrrolidin-2-yl}methyl)amino]-6-oxohexyl}amino)carbonyl]benzoic acid]
